Source: US5190922A (priority 1991, dated 1993)
Non-standard residues stand in square brackets, D forms with d. Residues, ends and D or L forms follow the SMILES beside them. ξ: configuration not given here. *: point of attachment. X10 = N=C(N)NCCCCN(C[C@H](CC1CCCCC1)N*)C(=O)Cc1ccccc1; Butanoyl(3S-Ph) = C[C@@H](CC(=O)*)c1ccccc1; NHCH2(2-pyridyl) = c1ccc(CN*)nc1; NMeF = CN[C@@H](Cc1ccccc1)C(=O)O; PhLac = O=C(O)[C@@H](O)Cc1ccccc1; X11 = O=[N+]([O-])c1cccc(CN*)c1; Cha = N[C@@H](CC1CCCCC1)C(=O)O; dCha = N[C@H](CC1CCCCC1)C(=O)O; X2 = N#CC(Cc1ccccc1)C(=O)*; ξCha = NC(CC1CCCCC1)C(=O)O; 4Amb = NCc1ccc(C(=O)O)cc1; X8 = c1ccc(C2(CN*)CC2)cc1; X7 = O=C(C(CO)c1ccccc1)*; X4 = NCCCN(CCc1ccccc1)*; NH(CH2)5NH2 = NCCCCCN*; NHBn = c1ccc(CN*)cc1; Bz = O=C(c1ccccc1)*; OBn = c1ccc(CO*)cc1; X5 = c1ccc(NN*)cc1; X3 = N=C(N)NCCCN*; X1 = N#CCCN*

Target: T1, C5a Receptor (Homo sapiens, UniProt P21730)
T1 construct: 2.5-25 μg/mL of purified PMNL membrane fragments; from tissue; host or cells: polymorphonuclear leukocyte (PMNL) membrane fragments
T1 sequence (P21730 1-350): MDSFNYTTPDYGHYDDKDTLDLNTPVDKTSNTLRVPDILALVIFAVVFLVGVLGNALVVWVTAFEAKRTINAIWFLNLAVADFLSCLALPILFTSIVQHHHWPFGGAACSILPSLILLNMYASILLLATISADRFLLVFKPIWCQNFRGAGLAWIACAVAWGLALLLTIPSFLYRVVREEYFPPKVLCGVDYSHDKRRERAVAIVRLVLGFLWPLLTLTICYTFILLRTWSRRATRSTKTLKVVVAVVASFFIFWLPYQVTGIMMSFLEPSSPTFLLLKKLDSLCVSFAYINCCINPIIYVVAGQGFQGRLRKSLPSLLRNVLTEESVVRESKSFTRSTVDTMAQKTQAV
Assay: Anaphylatoxin receptor binding Ki determination (inhibition of 125I-C5a binding to PMNL membrane fragments)
Conditions: not given
Protocol: Specific inhibition of C5 a binding activity of representative compounds of the present invention was measured using 0.03-1 nM ^125 I-C5 a with 2.5-25 μg/mL of purified PMNL membrane fragments (Borregaard, N.; Heiple, J. M.; Simons, E. R.; and Clark, R. A. J. Cell. Biol. 1983, 97, 52-61.). Free and membrane-bound ligand were separated by filtration.

SMILES	Ki [nM]
CN[C@@H](Cc1ccccc1)C(=O)N[C@@H](CCCCN)C(=O)N1CCC[C@H]1C(=O)N[C@H](CC1CCCCC1)C(=O)N[C@@H](Cc1ccccc1)C(=O)NCCCNC(=N)N [Example 201, (N-Methyl)Phenylalanyl-Lysyl-Prolyl-{(2R)-2-Amino-3-cyclohexylpropanoyl}-Phenylalanyl-N-(3-Guanidinopropyl)amide] (H-[NMeF]KP[dCha]F-X3)	690
CN[C@@H](Cc1ccccc1)C(=O)N[C@@H](CCCCN)C(=O)N1CCC[C@H]1C(=O)N[C@H](CC1CCCCC1)C(=O)N[C@@H](CC1CCCCC1)C(=O)NNc1ccccc1 [Example 163, (N-Methyl)Phenylalanyl-Lysyl-Prolyl-{(2R)-2-Amino-3-cyclohexylpropanoyl}-{(2S)-2-Amino-3-cyclohexylpropanoyl}-N-(N'-Phenyl)hydrazide] (H-[NMeF]KP[dCha][Cha]-X5)	140
CN[C@@H](Cc1ccccc1)C(=O)N[C@@H](CCCCN)C(=O)N1CCC[C@H]1C(=O)N[C@H](CC1CCCCC1)C(=O)N[C@@H](CC1CCCCC1)CN(CCCCNC(=N)N)C(=O)Cc1ccccc1 [Example 78, N-(4-Guanidinobutyl)-N-[(N-Methyl)Phenylalanyl-Lysyl-Prolyl-{(2R)-2-Amino-3-cyclohexylpropanoyl}-{(2S)-2-Amino-3-cyclohexylpropyl}]-N-Phenylacetamide] (H-[NMeF]KP[dCha]-X10)	680
CN[C@@H](Cc1ccccc1)C(=O)N[C@@H](CCCCN)C(=O)N1CCC[C@H]1C(=O)N[C@H](CC1CCCCC1)C(=O)N[C@@H](Cc1ccccc1)C(=O)NCC1(c2ccccc2)CC1 [Example 100, (N-Methyl)Phenylalanyl-Lysyl-Prolyl-{(2R)-2-Amino-3-cyclohexylpropanoyl}-Phenylalanyl-N-{(1-Phenyl)cyclopropylmethyl}amide] (H-[NMeF]KP[dCha]F-X8)	91
N#CC(Cc1ccccc1)C(=O)N[C@@H](CCCCN)C(=O)N1CCC[C@H]1C(=O)N[C@H](CC1CCCCC1)C(=O)N[C@@H](Cc1ccccc1)C(=O)N[C@H](CCCNC(=N)N)C(=O)O (stereo partly drawn) [Example 99, {(2RS)-2-Cyano-3-phenylpropionyl}-Lysyl-Prolyl-{(2R)-2-Amino-3-cyclohexylpropanoyl}-Phenylalanyl-DArginyl-OH] (X2-KP[dCha]F[dR]-OH)	120
CN[C@@H](Cc1ccccc1)C(=O)N[C@@H](CCCCN)C(=O)N1CCC[C@H]1C(=O)N[C@H](CC1CCCCC1)C(=O)N[C@@H](Cc1ccccc1)C(=O)NCc1ccc(C(=O)O)cc1 [Example 177, (N-Methyl)Phenylalanyl-Lysyl-Prolyl-{(2R)-2-Amino-3-cyclohexylpropanoyl}-Phenylalanyl-N-(4-Carboxybenzyl)amide] (H-[NMeF]KP[dCha]F[4Amb]-OH)	38700
N=C(N)NCCC[C@@H](NC(=O)[C@H](CC1CCCCC1)NC(=O)[C@@H](CC1CCCCC1)NC(=O)[C@@H]1CCCN1C(=O)[C@H](CCCCN)NC(=O)c1ccccc1)C(=O)O [Example 82, N-Benzoyl-Lysyl-Prolyl-{(2R)-2-Amino-3-cyclohexylpropanoyl}-{(2S)-2-Amino-3-cyclohexylpropanoyl}-DArginyl-OH] (Bz-KP[dCha][Cha][dR]-OH)	24000

Same assay, conditions: 0.03-1 nM 125I-C5a, 2.5-25 μg/mL purified PMNL membrane fragments, filtration; read-out: Ki (In vitro C5a Receptor Binding Potency)

SMILES	Ki [nM]
N=C(N)NCCC[C@@H](NC[C@H](Cc1ccccc1)NC(=O)[C@@H](CC1CCCCC1)NC(=O)[C@@H]1CCCN1C(=O)[C@H](CCCCN)NC(=O)CCCCc1ccccc1)C(=O)O [Example 202, {5-Phenylvaleryl}-Lysyl-Prolyl -{(2R)-2-Amino-3-cyclohexylpropanoyl}-Phenylalanyl-.PSI.(CH2 NH)-DArginyl-OH]	52000
CN[C@@H](Cc1ccccc1)C(=O)N[C@@H](CCCCN)C(=O)N1CCC[C@H]1C(=O)N[C@H](CC1CCCCC1)C(=O)N1CCN(Cc2ccccc2)CC1 [Example 117]	110000
CN[C@@H](Cc1ccccc1)C(=O)N[C@@H](CCCCN)C(=O)N1CCC[C@H]1C(=O)N[C@H](CC1CCCCC1)C(=O)N[C@@H](CC1CCCCC1)C(=O)NCc1cccc([N+](=O)[O-])c1 [Example 114, (N-Methyl)Phenylalanyl-Lysyl-Prolyl-{(2R)-2-Amino-3-cyclohexylpropanoyl}-{(2S)-2-Amino-3-cyclohexylpropanoyl}-N-(3-Nitrobenzyl)amide] (H-[NMeF]KP[dCha][Cha]-X11)	130
CN[C@@H](Cc1ccccc1)C(=O)N[C@@H](CCCCN)C(=O)N1CCC[C@H]1C(=O)N[C@H](CC1CCCCC1)C(=O)N[C@@H](CC1CCCCC1)C(=O)NCc1ccccc1 [Example 96, (N-Methyl)Phenylalanyl-Lysyl-Prolyl-{(2R)-2-Amino-3-cyclohexylpropanoyl}-{(2S)-2-Amino-3-cyclohexylpropanoyl}-N-Benzylamide] (H-[NMeF]KP[dCha][Cha]-NHBn)	90
N=C(N)NCCC[C@@H](NC(=O)[C@H](CC1CCCCC1)NC(=O)[C@@H](CC1CCCCC1)NC(=O)[C@@H]1CCCN1C(=O)[C@H](CCCCN)NC(=O)C(Cc1ccccc1)C(=O)O)C(=O)O (mixture of isomers) [Example 149, {(R/S)-(2-Carboxyl)-3-phenylpropionyl}-Lysyl-Prolyl-{(2R)-2-Amino-3-cyclohexylpropanoyl}-{(2S)-2-Amino-3-cyclohexylpropanoyl}-DArginyl-OH]	22
C[C@@H](CC(=O)N[C@@H](CCCCN)C(=O)N1CCC[C@H]1C(=O)N[C@H](CC1CCCCC1)C(=O)N[C@@H](CC1CCCCC1)C(=O)N[C@H](CCCNC(=N)N)C(=O)O)c1ccccc1 [Example 57, {S(+)-3-Phenylbutyryl}-Lysyl-Prolyl-{(2R)-2-Amino-3-cyclohexylpropanoyl}-{(2S)-2-Amino-3-cyclohexylpropanoyl}-DArginyl-OH] ({Butanoyl(3S-Ph)}-KP[dCha][Cha][dR]-OH)	27
N=C(N)NCCC[C@@H](NC(=O)[C@H](Cc1ccccc1)NC(=O)[C@@H](CC1CCCCC1)NC(=O)[C@@H]1CCCN1C(=O)[C@H](CCCCN)NC(=O)C(CO)c1ccccc1)C(=O)O (stereo partly drawn) [Example 8, {(2R/S)-2-Hydroxymethyl-2-phenylacetyl}-Lysyl-Prolyl-{(2R)-2-Amino-3-cyclohexylpropanoyl}-Phenylalanyl-DArginyl-OH] (X7-KP[dCha]F[dR]-OH)	6200
CN[C@@H](Cc1ccccc1)C(=O)N[C@@H](CCCCN)C(=O)N1CCC[C@H]1C(=O)N[C@H](CC1CCCCC1)C(=O)N[C@@H](CC1CCCCC1)C(=O)NCCC#N [Example 223, (N-Methyl)Phenylalanyl-Lysyl-Prolyl-{(2R)-2-Amino-3-cyclohexylpropanoyl}-{(2S)-2-Amino-3-cyclohexylpropanoyl}-N-(2-Cyanoethyl)amide] (H-[NMeF]KP[dCha][Cha]-X1)	1200
N=C(N)NCCC[C@@H](NC(=O)[C@H](Cc1ccccc1)NC(=O)[C@@H](CC1CCCCC1)NC(=O)[C@@H]1CCCN1C(=O)[C@H](CCCCN)NC(=O)[C@@H](O)Cc1ccccc1)C(=O)O [Example 84, {(3S)-Phenyllactyl)-Lysyl-Prolyl-{(2R)-2-Amino-3-cyclohexylpropanoyl}-Phenylalanyl-DArginyl-OH] (H-[PhLac]KP[dCha]F[dR]-OH)	62
CN[C@@H](Cc1ccccc1)C(=O)N[C@@H](CCCCN)C(=O)N1CCC[C@H]1C(=O)N[C@H](CC1CCCCC1)C(=O)NC(CC1CCCCC1)C(=O)OCc1ccccc1 (stereo partly drawn) [Example 159, (N-Methyl)Phenylalanyl-Lysyl-Prolyl-{(2R)-2-Amino-3-cyclohexylpropanoyl}-{(2R/S)-2-Amino-3-cyclohexylpropanoyl}O-Benzyl] (H-[NMeF]KP[dCha][ξCha]-OBn)	980
CN[C@@H](Cc1ccccc1)C(=O)N[C@@H](CCCCN)C(=O)N1CCC[C@H]1C(=O)N[C@H](CCCNC(=N)N)C(=O)N[C@@H](Cc1ccccc1)C(=O)NCc1ccccn1 [Example 199, (N-Methyl)Phenylalanyl-Lysyl-Prolyl-DArginyl-Phenylalanyl-N-(2-Picolyl)amide] (H-[NMeF]KP[dR]F-{NHCH2(2-pyridyl)})	8400
CN[C@@H](Cc1ccccc1)C(=O)N[C@@H](CCCCN)C(=O)N1CCC[C@H]1C(=O)N[C@H](CC1CCCCC1)C(=O)N[C@@H](CC1CCCCC1)C(=O)NCCCCCN [Example 30, (N-Methyl)Phenylalanyl-Lysyl-Prolyl-{(2R)-2-Amino-3-cyclohexylpropanoyl}-{(2S)-2-Amino-3-cyclohexylpropanoyl}-N-(5-Aminopentyl)amide] (H-[NMeF]KP[dCha][Cha]-{NH(CH2)5NH2})	2200
CN[C@@H](Cc1ccccc1)C(=O)N[C@@H](CCCCN)C(=O)N1CCC[C@H]1C(=O)N[C@H](CC1CCCCC1)C(=O)N[C@@H](CC1CCCCC1)C(=O)NCCCNC(=N)N [Example 55, (N-Methyl)Phenylalanyl-Lysyl-Prolyl-{(2R)-2-Amino-3-cyclohexylpropanoyl}-{(2S)-2-Amino-3-cyclohexylpropanoyl}-N-(3-Guanidinopropyl)amide] (H-[NMeF]KP[dCha][Cha]-X3)	7
CN[C@@H](Cc1ccccc1)C(=O)N[C@@H](CCCCN)C(=O)N1CCC[C@H]1C(=O)N[C@H](CC1CCCCC1)C(=O)N(CCCN)CCc1ccccc1 [Example 225, (N-Methyl)Phenylalanyl-Lysyl-Prolyl-{(2R)-2-Amino-3-cyclohexylpropanoyl}-N-3-Aminopropyl-N-2-Phenethylamide] (H-[NMeF]KP[dCha]-X4)	46000
